Source: patent US20100168083A1, “ADAMANTANE DERIVATIVES FOR THE TREATMENT OF THE METABOLIC SYNDROME” (priority 2006, published 2010)

Molecular target: T1, h-11βHSD1 (Homo sapiens, UniProt P28845)
T1 construct: made in house; host or cells: yeast
Test: 11βHSD1 enzyme assay (SPA)
Type: biochemical
Details: extract of yeast transformed with h-11βHSD1; 120 nM 3H-cortisone; 60 min at 30° C.
Experimental: 11βHSD1 Enzyme Assay Materials ^3H-cortisone and anti-rabbit Ig coated scintillation proximity assay (SPA) beads were purchased from Amersham Pharmacia Biotech, β-NADPH was from Sigma and rabbit anti-cortisol antibodies were from Fitzgerald. […] The test compounds were dissolved in DMSO (10 mM). All dilutions were performed in a buffer containing 50 mM TRIS-HCl (Sigma Chemical Co), 4 mM EDTA (Sigma Chemical Co), 0.1% BSA (Sigma Chemical Co), 0.01% Tween-20 (Sigma Chemical Co) and 0.005% bacitracin (Novo Nordisk A/S), pH=7.4. Optiplate 96 wells plates were supplied by Packard. The amount of ^3H-cortisol bound to the SPA beads was measured on TopCount NXT, Packard. […] The reaction was initiated by mixing the different components and was allowed to proceed under shaking for 60 min at 30° C. The reaction was stopped be the addition of 10 fold excess of a stopping buffer containing 500 μM carbenoxolone and 1 μM cortisone. Data was analysed using GraphPad Prism software.

T1 sequence (P28845 whole entry): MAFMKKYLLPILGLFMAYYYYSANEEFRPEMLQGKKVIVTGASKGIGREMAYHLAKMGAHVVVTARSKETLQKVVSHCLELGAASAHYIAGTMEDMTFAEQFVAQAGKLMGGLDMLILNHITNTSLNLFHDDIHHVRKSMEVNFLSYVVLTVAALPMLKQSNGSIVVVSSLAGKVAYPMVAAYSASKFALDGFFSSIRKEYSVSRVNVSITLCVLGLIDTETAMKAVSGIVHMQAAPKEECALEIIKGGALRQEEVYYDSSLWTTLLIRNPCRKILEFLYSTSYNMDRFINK

IC50 [nM] | Compound
1320 | O=C(O)c1ccc(OCCC2CCN(C(=O)[C@]34C[C@H]5C[C@H](C[C@H](C5)C3)C4)CC2)cc1 [Example 3, 4-{2-[1-(Tricyclo[3.3.1.1.3.7]decanane-1-carbonyl)-piperidin-4-yl]-ethoxy}-benzoic acid]
835 | O=C(N1CCC(COc2ccccn2)CC1)[C@]12C[C@H]3C[C@H](C[C@H](C3)C1)C2 [Example 6]
